{"source": "paper PMC6797691", "about": "“Towards the understanding of the enzymatic cleavage of polyisoprene by the dihaem-dioxygenase RoxA” (AMB Express, 2019)", "target": "RoxA (RoxA-Wt, rubber oxygenase A) (Xanthomonas sp. 35Y, UniProt Q7X0P3)", "sequence (Q7X0P3 entry or part of it)": "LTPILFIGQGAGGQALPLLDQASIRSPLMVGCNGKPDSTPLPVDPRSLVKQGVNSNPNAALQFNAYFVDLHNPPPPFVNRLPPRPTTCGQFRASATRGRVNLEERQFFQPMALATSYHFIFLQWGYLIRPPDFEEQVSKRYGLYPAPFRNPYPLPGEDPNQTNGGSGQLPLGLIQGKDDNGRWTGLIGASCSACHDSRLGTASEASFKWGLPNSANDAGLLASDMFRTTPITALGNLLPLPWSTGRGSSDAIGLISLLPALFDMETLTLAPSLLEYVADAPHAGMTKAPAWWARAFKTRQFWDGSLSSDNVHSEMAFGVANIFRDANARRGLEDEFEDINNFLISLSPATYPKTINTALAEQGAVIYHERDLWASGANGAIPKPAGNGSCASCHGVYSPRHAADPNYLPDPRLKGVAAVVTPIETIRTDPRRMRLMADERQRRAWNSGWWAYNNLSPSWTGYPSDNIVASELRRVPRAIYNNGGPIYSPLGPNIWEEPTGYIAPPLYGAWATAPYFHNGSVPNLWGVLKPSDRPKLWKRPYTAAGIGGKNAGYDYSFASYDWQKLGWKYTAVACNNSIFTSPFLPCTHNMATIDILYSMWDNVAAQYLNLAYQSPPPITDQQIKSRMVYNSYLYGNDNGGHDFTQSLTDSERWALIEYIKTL", "conditions": "RoxA as isolated (oxygenated haem), pyridine 2 mM, pH 7; N-terminal haem iron, displaces bound dioxygen"}
{"smiles": "c1ccncc1", "note": "[pyridine]", "values": [{"measurement": "UV-vis spectroscopy (549 nm band), EPR", "result": "displacement of haem-bound dioxygen by N-heterocycles that then serve as artificial ligands to a ferrous haem"}]}
